Measured values as given in ChEMBL document CHEMBL1128211, “3D-quantitative structure-activity relationships of human immunodeficiency virus type-1 proteinase inhibitors: comparative molecular field analysis of 2-heterosubstituted statine derivatives-implications for the design of novel inhibitors” (J Med Chem, 1995).

What follows are compounds tested against Human immunodeficiency virus type 1 protease (Human immunodeficiency virus 1, UniProt Q72874) (assay: Inhibitory activity was determined against HIV type 1 protease).

SMILES	Ki [nM]
CC(C)C[C@H](NC(=O)[C@H](NCc1ccccc1)[C@H](O)[C@H](Cc1ccccc1)NC(=O)[C@@H](NC(=O)OCc1ccccc1)C(C)C)C(=O)NCc1ccccc1	11
CC(C)(C)[C@H](NC(=O)OCc1ccccc1)C(=O)N[C@@H](Cc1ccccc1)[C@@H](O)[C@@H](NCc1ccccc1)C(=O)NC(CO)c1ccccc1 (stereo partly drawn)	107
COc1ccc(CN[C@@H](C(=O)N[C@H](C(=O)NCCn2ccnc2)C(C)C)[C@H](O)[C@H](Cc2ccccc2)NC(=O)[C@@H](NC(=O)OCc2ccccc2)C(C)C)cc1	28.8
CC(C)[C@H](NC(=O)OCc1ccccn1)C(=O)N[C@@H](Cc1ccccc1)[C@@H](O)[C@@H](NCc1ccccc1)C(=O)N[C@H](C(=O)NCc1ccccn1)C(C)C	26.9
COc1ccc(CN[C@@H](C(=O)N[C@H](C(=O)NCc2ccccc2)C(C)C)[C@H](O)[C@H](Cc2ccccc2)NC(=O)[C@@H](NC(=O)N(C)Cc2nc3ccccc3[nH]2)C(C)C)cc1	10.2
CC(C)[C@H](NC(=O)OCc1ccccc1)C(=O)N[C@@H](Cc1ccccc1)[C@@H](O)[C@@H](NCCc1cc2ccccc2[nH]1)C(=O)N[C@H](C(=O)NCc1ccccc1)C(C)C	61.7
COC(=O)[C@@H](NC(=O)[C@H](NCc1ccccc1)[C@H](O)[C@H](Cc1ccccc1)NC(=O)[C@@H](NC(=O)OCc1ccccc1)C(C)C)C(C)C	1100
COc1ccc(CN[C@@H](C(=O)NCc2ccc(OC)cc2O)[C@H](O)[C@H](Cc2ccccc2)NC(=O)[C@@H](NC(=O)OCc2ccccc2)C(C)C)cc1	3020
CC(C)(C)[C@H](NC(=O)OCc1ccccc1)C(=O)N[C@@H](Cc1ccccc1)[C@@H](O)[C@@H](NCc1ccc(OCCO)cc1)C(=O)N[C@H]1c2ccccc2CC1O (stereo partly drawn)	15.8
COc1ccc(C[C@H](NC(=O)OC(C)(C)C)[C@@H](O)[C@@H](NCc2ccc(Cl)cc2)C(=O)N[C@H](C(=O)NCc2nc3ccccc3[nH]2)C(C)C)cc1	8.91
CC(C)[C@H](NC(=O)[C@H](NCc1ccccc1)[C@H](O)[C@H](Cc1ccccc1)NC(=O)[C@@H](NC(=O)CC1NC(=O)NC1=O)C(C)(C)C)C(=O)NCc1ccccc1 (stereo partly drawn)	11
CC(C)(C)OC(=O)N[C@@H](Cc1ccccc1)[C@@H](O)[C@@H](NCc1ccc(CNC(=O)CCc2nc3ccccc3[nH]2)cc1)C(=O)N[C@H]1c2ccccc2CC1O (stereo partly drawn)	40.7
COc1ccc(CN[C@@H](C(=O)N[C@H](C(=O)NCCc2ccc(O)cc2)C(C)C)[C@H](O)[C@H](Cc2ccccc2)NC(=O)[C@@H](NC(=O)OCc2ccccc2)C(C)C)cc1	18.2
COc1ccc(CN[C@@H](C(=O)N[C@H](C(=O)NCC2CCCCC2O)C(C)C)[C@H](O)[C@H](Cc2ccccc2)NC(=O)[C@@H](NC(=O)OCc2ccccc2)C(C)C)cc1 (stereo partly drawn)	15.8
CCOc1ccc(CN[C@@H](C(=O)NCc2ccccc2)[C@H](O)[C@H](Cc2ccccc2)NC(=O)[C@@H](NC(=O)OCc2ccccc2)C(C)(C)C)cc1	37.2
CC(C)(C)[C@H](NC(=O)OCc1ccccc1)C(=O)N[C@@H](Cc1ccccc1)[C@@H](O)[C@@H](NCc1ccc(OCCO)cc1)C(=O)NCc1ccccc1	33.9
COc1cccc(CN[C@@H](C(=O)N[C@H](C(=O)NCc2nc3ccccc3[nH]2)C(C)C)[C@H](O)[C@H](Cc2ccccc2)NC(=O)[C@@H](NC(=O)OCc2ccccc2)C(C)C)c1	9.77
COc1ccc(CN[C@@H](C(=O)N[C@H](C(=O)NCc2nc3ccccc3[nH]2)C(C)C)[C@H](O)[C@H](Cc2ccccc2)NC(=O)[C@@H](NC(=O)OC(C)(C)C)C(C)C)cc1	20.9
COc1ccc(CN[C@@H](C(=O)N[C@H](C(=O)NCc2ccc(OC)cc2O)C(C)C)[C@H](O)[C@H](Cc2ccccc2)NC(=O)[C@@H](NC(=O)OCc2ccccc2)C(C)C)cc1	14.1
COc1ccc(CN[C@@H](C(=O)N[C@H](C(=O)NCc2nc3ccccc3[nH]2)C(C)C)[C@H](O)[C@H](Cc2ccccc2)NC(=O)[C@@H](NC(=O)OCc2nc3cc[nH]cc-3n2)C(C)(C)C)cc1	19.1
CC(C)[C@H](NC(=O)c1ccc2ccccc2n1)C(=O)N[C@@H](Cc1ccccc1)[C@@H](O)[C@@H](NCc1ccccc1)C(=O)N[C@H](C(=O)NCc1ccccn1)C(C)C	42.7
CC(C)[C@H](NC(=O)OCc1ccccc1)C(=O)N[C@@H](Cc1ccccc1)[C@@H](O)[C@@H](NC[C@H](O)c1ccccc1)C(=O)N[C@H](C(=O)NCc1nc2ccccc2[nH]1)C(C)C	28.2
CC(C)[C@H](NC(=O)OCc1ccccc1)C(=O)N[C@@H](Cc1ccccc1)[C@@H](O)[C@@H](NCc1ccc(Cl)cc1)C(=O)N[C@H](C(=O)NCc1ccccn1)C(C)C	6.46
CC(C)[C@H](NC(=O)[C@H](NCc1ccccc1)[C@H](O)[C@H](Cc1ccccc1)NC(=O)[C@@H](NC(=O)OCc1ccccn1)C(C)(C)C)C(=O)NCc1ccccc1	1.24
CC(C)[C@H](NC(=O)[C@H](SCc1ccccc1)[C@H](O)[C@H](Cc1ccccc1)NC(=O)OC(C)(C)C)C(=O)NCc1ccccc1	26.9
COc1ccc(CN[C@@H](C(=O)NC2c3ccccc3C[C@H]2O)[C@H](O)[C@H](Cc2ccccc2)NC(=O)[C@@H](NC(=O)C(O)Cc2ccccc2)C(C)(C)C)cc1 (stereo partly drawn)	14.1
COc1ccc(CN[C@@H](C(=O)NCCNCc2nc3ccccc3[nH]2)[C@H](O)[C@H](Cc2ccccc2)NC(=O)[C@@H](NC(=O)OCc2ccccc2)C(C)C)cc1	1290

SMILES	Ki [nM]
CC(C)[C@H](NC(=O)OCc1ccccc1)C(=O)N[C@@H](Cc1ccccc1)[C@@H](O)[C@@H](NCc1ccc(Br)cc1)C(=O)N[C@H](C(=O)NCc1nc2ccccc2[nH]1)C(C)C	15.1
CC(C)[C@H](NC(=O)[C@H](NCc1ccccc1)[C@H](O)[C@H](Cc1ccccc1)NC(=O)[C@@H](NC(=O)N(C)c1ccccc1)C(C)(C)C)C(=O)NCc1ccccc1	646
COc1ccc(CN[C@@H](C(=O)N[C@H](C(=O)NCCn2cnc3ccccc32)C(C)C)[C@H](O)[C@H](Cc2ccccc2)NC(=O)[C@@H](NC(=O)OCc2ccccc2)C(C)C)cc1	19.1
CCOc1ccc(CN[C@@H](C(=O)N[C@H]2c3ccccc3CC2O)[C@H](O)[C@H](Cc2ccccc2)NC(=O)[C@@H](NC(=O)OCc2ccccc2)C(C)(C)C)cc1 (stereo partly drawn)	10
CCOC(=O)[C@H](NCc1ccc(Cl)cc1)[C@H](O)[C@H](Cc1ccc(OC)cc1)NC(=O)OC(C)(C)C	3720
COc1ccc(CN[C@@H](C(=O)N[C@H](C(=O)NCc2nc3ccccc3[nH]2)C(C)C)[C@H](O)[C@H](Cc2ccccc2)NC(=O)[C@@H](NC(=O)OCc2ccccc2)C(C)C)cc1OC	12.6
COc1ccc(CN[C@@H](C(=O)N[C@H](C(=O)NCc2nc3ccccc3[nH]2)C(C)C)[C@H](O)[C@H](Cc2ccccc2)NC(=O)[C@@H](NC(=O)[C@@H](O)Cc2ccccc2)C(C)(C)C)cc1	6.03
COc1ccc(CN[C@@H](C(=O)NCC(O)c2ccccc2)[C@H](O)[C@H](Cc2ccccc2)NC(=O)[C@@H](NC(=O)OCc2ccccc2)C(C)C)cc1 (stereo partly drawn)	2510
CC(C)(C)[C@H](NC(=O)OCc1ccccc1)C(=O)N[C@@H](Cc1ccccc1)[C@@H](O)[C@@H](NCc1ccccc1)C(=O)N[C@@H](CO)c1ccccc1	36.3
COc1ccc(CN[C@@H](C(=O)N[C@H](C(=O)N(C)Cc2nc3ccccc3[nH]2)C(C)C)[C@H](O)[C@H](Cc2ccccc2)NC(=O)OC(C)(C)C)cc1	12
COc1ccc(CN[C@@H](C(=O)N[C@H](C(=O)NCc2nc3ccccc3[nH]2)C(C)C)[C@H](O)[C@H](Cc2ccccc2)NC(=O)[C@@H](N)C(C)(C)C)cc1	7.76
CC(C)(C)[C@H](NC(=O)OCc1ccccc1)C(=O)N[C@@H](Cc1ccccc1)[C@@H](O)[C@@H](NCc1ccc(OCCN2CCOCC2)cc1)C(=O)N[C@H]1c2ccccc2CC1O (stereo partly drawn)	9.55
CC(C)[C@H](NC(=O)[C@H](NCc1ccc(Br)cc1)[C@H](O)[C@H](Cc1ccccc1)NC(=O)[C@@H](NC(=O)c1ccc2ccccc2n1)C(C)(C)C)C(=O)NCc1nc2ccccc2[nH]1	5.62
CC(C)[C@H](NC(=O)[C@H](NCc1ccccc1)[C@H](O)[C@H](Cc1ccccc1)NC(=O)[C@@H](NC(=O)OC(C)(C)C)C(C)(C)C)C(=O)NCc1ccccc1	417
COc1ccc(CN[C@@H](C(=O)N[C@H](C(=O)NCCN2CCOCC2)C(C)C)[C@H](O)[C@H](Cc2ccccc2)NC(=O)[C@@H](NC(=O)OCc2ccccc2)C(C)C)cc1	24
CC(C)(C)[C@H](NC(=O)OCc1ccccc1)C(=O)N[C@@H](Cc1ccccc1)[C@@H](O)[C@@H](NCc1ccc(OCCN2CCOCC2)cc1)C(=O)NCc1ccccc1	69.2
CC(C)(C)OC(=O)N[C@@H](Cc1ccccc1)[C@@H](O)[C@@H](NCc1ccc(OCCN2CCOCC2)cc1)C(=O)N[C@H]1c2ccccc2CC1O (stereo partly drawn)	162
COc1ccc(CN[C@@H](C(=O)N[C@H](C(=O)NCc2nc3ccccc3[nH]2)C(C)C)[C@H](O)[C@H](Cc2ccccc2)NC(=O)[C@H](NC(=O)OCc2nc3cc[nH]cc-3n2)C(C)(C)C)cc1	447
CC(C)(C)[C@H](NC(=O)OCc1ccccc1)C(=O)N[C@@H](Cc1ccccc1)[C@@H](O)[C@@H](NCc1ccc(CNC(=O)Nc2ccccc2)cc1)C(=O)N[C@H]1c2ccccc2CC1O (stereo partly drawn)	3.31
CC(C)(C)[C@H](NC(=O)OCc1ccccc1)C(=O)N[C@@H](Cc1ccccc1)[C@@H](O)[C@@H](NCc1ccc(CNC(=O)OCc2ccccc2)cc1)C(=O)N[C@H]1c2ccccc2CC1O (stereo partly drawn)	10
CC(C)(C)[C@H](NC(=O)OCc1ccccc1)C(=O)N[C@@H](Cc1ccccc1)[C@@H](O)[C@@H](NCc1ccc(CNC(=O)CCc2nc3ccccc3[nH]2)cc1)C(=O)N[C@H]1c2ccccc2CC1O (stereo partly drawn)	4.07
COc1ccc(CN[C@@H](C(=O)N[C@H](C(=O)Nc2ccc3c(c2)OCCO3)C(C)C)[C@H](O)[C@H](Cc2ccccc2)NC(=O)[C@@H](NC(=O)OCc2ccccc2)C(C)C)cc1	15.1
CC(C)(C)OC(=O)N[C@@H](Cc1ccccc1)[C@@H](O)[C@@H](NCc1ccc(CNC(=O)OCc2ccccc2)cc1)C(=O)N[C@H]1c2ccccc2CC1O (stereo partly drawn)	19.1
CC(C)[C@H](NC(=O)[C@H](NCc1ccccc1)[C@H](O)[C@H](Cc1ccccc1)NC(=O)[C@H](O)C(C)C)C(=O)NCc1ccccc1	794
CC(C)(C)OC(=O)N[C@@H](Cc1ccccc1)[C@@H](O)[C@@H](NCc1ccc(OCCO)cc1)C(=O)NCc1ccccc1	1200
CC(C)(C)OC(=O)N[C@@H](Cc1ccccc1)[C@@H](O)[C@@H](NCc1ccccc1)C(=O)NCc1ccccc1	2510
